Results taken from paper PMC12115197, “Neuroprotective Potential of Tetraselmis chuii Compounds: Insights into Blood–Brain Barrier Permeability and Intestinal Transport” (Pharmaceuticals, 2025).
“And” between values parts separate entries of the source, which are not always exact repeats. Equal entries are not always repeated. “Also recorded” adds a separate entry of the source. Marks after values point to notes of the source that are not given here.

Legend:
HBMEC cells = test: Blood-brain barrier transport study (Transwell, UHPLC-q-TOF-MS); type: in vitro ADME, human; conditions: for Permeability / transport to the lower compartment in HBMEC cells, over the incubation times tested: OP-1 extract 40 µg mL−1, 2-24 h, time not specified (overall or maximum); for Te% ± SEM HBMEC Cells 2 h: OP-1 extract 40 µg mL−1, 2 h; for Te% ± SEM HBMEC Cells 2 h / Te% ± SEM HBMEC Cells 4 h / Te% ± SEM HBMEC Cells 24 h: Te = CLower/CUpper × 100; for Te% ± SEM HBMEC Cells 4 h: OP-1 extract 40 µg mL−1, 4 h; for Te% ± SEM HBMEC Cells 24 h: OP-1 extract 40 µg mL−1, 24 h
Protocol: The HBMEC cell line was used as a simplified in vitro model of the BBB endothelium. For this, cells were seeded at a density of 1.6 × 10^5 cells/cm^2 into 12-well Transwell® plates (0.4 μm pore, Corning Costar Corp., Corning, NY, USA) coated with rat tail collagen-I (100 μg mL^−1). Medium was changed every second day until a monolayer was formed (10 days), and the transport studies were initiated.
Medium containing 0.4% ethanol was used as the control group, and the lower chamber was filled with 1.5 mL of medium. The cells were incubated under these conditions for 2, 4, and 24 h. After incubation time, cell culture medium from both the upper and lower compartments was collected, dried using a freeze dryer (Martin Christ, Osterode am Harz, Germany), and stored at −80 °C until the chemical characterization was performed to assess the transport efficiency of the bioactive compounds.
(§1) The transport efficiency of bioactive compounds across the cell layer (Te) was calculated using the Equation (1) proposed by Pogačnik et al. (2016):Te = CLower/CUpper × 100%(1)
(§2) This calculation was performed to understand whether the compound crosses the cell layer and how efficiently it is transported. Here, CLower represents the relative concentration (peak area) of the compound in the lower compartment, and CUpper represents the relative concentration (peak area) of the compound in the upper compartment.
(§3) Obtained samples from the transport assays performed in HBMEC and Caco-2 cells were extracted to recover and concentrate the bioactive compounds in the upper and lower compartments and to prevent possible interferences of the cell culture medium in the analyses. Briefly, dried samples were resuspended in 0.5 mL of H2O and mixed with vortex for 10 s. Then, 0.5 mL of AcOEt was added, mixed with vortex for 10 s, and centrifuged at 14,000 rpm for 5 min. After centrifugation, the supernatant (AcOEt) was carefully transferred to a 1.5 mL Eppendorf tube and dried in a SpeedVac (SPD1030, Thermo Fisher Scientific) device at 40 °C and 13 mbar pressure. Finally, the dried extracts were resuspended in 25 μL of pure ethanol for their subsequent analysis.
(§4) The analysis of the obtained samples from HBMEC cells, Caco-2 cells, and PAMPA-BBB experiments was carried out using the same conditions and instrumentation as in our previous study. Briefly, 10 μL of each sample was injected into an Agilent 1290 UHPLC system equipped with a DAD detector and coupled to an Agilent 6540 q-TOF/MS equipped with an orthogonal atmospheric pressure chemical ionization (APCI) source, all from Agilent Technologies (Santa Clara, CA, USA). Carotenoids were separated using a Thermo Fisher Scientific Accucore C30 column (2.6 μm, 4.6 × 50 mm), applying a flow rate of 0.8 mL min^−1 at 30 °C. Methanol/MTBE/water (90:7:3%) and methanol/MTBE (10:90%) were used as mobile phases, and the chromatographic gradient started with 0%B, changing it to 100%B within 12 min. This was kept constant for 1.5 min before returning to the initial conditions.
(§5) The results were processed using the Agilent Mass Hunter Qualitative software (version B.10.0). A peak intensity threshold of 5000 (nearly 4 times the noise signal) in the upper compartments was applied to obtain reliable and accurate results, and a relative quantification was performed. Peaks below this threshold value were excluded from the analysis.

Caco-2 cells = test: Intestinal transepithelial transport study (Transwell, UHPLC-q-TOF-MS); type: in vitro ADME, human; conditions: for Permeability / transport to the lower compartment in Caco-2 cells, over the incubation times tested: OP-1 extract 40 µg mL−1, 2-24 h, time not specified (overall or maximum); for Te% ± SEM Caco-2 Cells 2 h: OP-1 extract 40 µg mL−1, 2 h; for Te% ± SEM Caco-2 Cells 2 h / Te% ± SEM Caco-2 Cells 4 h / Te% ± SEM Caco-2 Cells 24 h: Te = CLower/CUpper × 100; for Te% ± SEM Caco-2 Cells 4 h: OP-1 extract 40 µg mL−1, 4 h; for Te% ± SEM Caco-2 Cells 24 h: OP-1 extract 40 µg mL−1, 24 h
Protocol: as §1, §2
Caco-2 cells were grown according to the protocol described by Rojo-Poveda et al. (2020) to evaluate the intestinal permeability. Briefly, Caco-2 cells were seeded into inserts (0.4 μm pore, Corning Costar Corp., Corning, NY, USA) in 12-well plates. Then, 0.5 mL of complete DMEM culture medium containing approximately 300,000 cells was applied to the apical surface (AP) of each insert, and 1.5 mL of the same culture medium was added to the basolateral side (BL). Cells were allowed to grow for 21 days to differentiate and form a monolayer, changing the culture medium every 2–3 days.
The Caco-2 transport studies were performed using the same procedures as for HBMEC experiments (described in Section 4.5.2 and Section 4.5.3), but using DMEM as cell culture medium and recording TEER measurements.
as §3, §4, §5

[1] = Neuroprotection against L-glutamate-induced toxicity in SH-SY5Y cells (MTT); conditions: human
Protocol: Then, the viability was determined by the MTT assay as below. At the end of the 24 h incubation period, the medium was removed, and 0.5 mg mL^−1 MTT solution was added to each well. The cells were incubated at 37 °C for 3 h. At the end of the incubation, MTT was carefully removed, and formazan crystals in the wells were dissolved by adding 100 µL of DMSO. The absorbance of the solution was measured by a plate reader at 570 nm wavelength. Cell viability was calculated by comparing the absorbance values of treated cells with the control group (ethanol-treated cells). […] All the experiments were performed in triplicate.
In the control group, DMEM/F12 cell medium supplemented with 1% FBS, 100 U mL^−1 penicillin, 100 μg mL^−1 streptomycin, 250 ng mL^−1 antimycotic, and 0.4% ethanol was used. […] Cell viability was assessed by MTT assay at the end of the experiments. All the experiments were repeated three times.

[2] = system: differentiated SH-SY5Y cells; test: Neuroprotection against H2O2-induced toxicity in SH-SY5Y cells (MTT); type: cell-based, human; conditions: H2O2 65 µM, 24 h
Protocol: All the experiments were performed in triplicate.
All the experiments were repeated three times.

Row | Compound | Permeability / transport to the lower compartment in HBMEC cells, over the incubation times tested (HBMEC cells) | Te% ± SEM HBMEC Cells 24 h (HBMEC cells) | Permeability / transport to the lower compartment in Caco-2 cells, over the incubation times tested (Caco-2 cells) | also measured
1 | CC1=C(C#C/C(C)=C/C=C/C(C)=C/C=C/C=C(C)/C=C/C=C(C)/C=C/C2=C(C)CCCC2(C)C)C(C)(C)C[C@H](O)C1 [Crocoxanthin] | ≈ 3% and 3% | 2.7 ± 0.6 ^a % | ≈ 12% and 12.1% | Te% ± SEM HBMEC Cells 2 h (HBMEC cells): 3.4 ± 3.2 ^a %; Te% ± SEM HBMEC Cells 4 h (HBMEC cells): 0.9 ± 0.3 ^b %; Te% ± SEM Caco-2 Cells 2 h (Caco-2 cells): 12.0 ± 9.5 ^a %; Te% ± SEM Caco-2 Cells 4 h (Caco-2 cells): 11.8 ± 5.6 ^a %; Te% ± SEM Caco-2 Cells 24 h (Caco-2 cells): 12.1 ± 1.5 ^a %
2 | CC1=C(C#C/C(C)=C/C=C/C(C)=C/C=C/C=C(C)/C=C/C=C(C)/C=C/C2=C(C)C[C@@H](O)CC2(C)C)C(C)(C)C[C@H](O)C1 [Diatoxanthin] | 8.1% | 8.1 ± 3.4 ^a % | 4.4% | Te% ± SEM HBMEC Cells 4 h (HBMEC cells): 1.1 ± 0.1 ^b %; Te% ± SEM HBMEC Cells 4 h (HBMEC cells; listed as diatoxanthin): 1.1%; Te% ± SEM HBMEC Cells 24 h (HBMEC cells; listed as diatoxanthin): 8.1%; Te% ± SEM Caco-2 Cells 2 h (Caco-2 cells): 1.4 ± 0.1 ^c %; Te% ± SEM Caco-2 Cells 2 h (Caco-2 cells; listed as diatoxanthin): 1.4%; Te% ± SEM Caco-2 Cells 4 h (Caco-2 cells): 2.3 ± 0.3 ^b %; Te% ± SEM Caco-2 Cells 24 h (Caco-2 cells): 4.4 ± 0.9 ^a %; Te% ± SEM Caco-2 Cells 24 h (Caco-2 cells; listed as diatoxanthin): 4.4%
3 | C\C(C=C=C1C(C)(C)C[C@H](O)C[C@@]1(C)O)=C/C=C/C(C)=C/C=C/C=C(C)/C=C/C=C(\C)C(=O)C[C@@]12O[C@]1(C)C[C@@H](O)CC2(C)C [Fucoxanthinol] |  | 18.94% and 18.9 ± 2.3 ^a % |  | Te% ± SEM HBMEC Cells 2 h (HBMEC cells): 4.41% and 4.4 ± 1.1 ^c %; Te% ± SEM HBMEC Cells 2 h (HBMEC cells; listed as fucoxanthinol): 4.4%; Te% ± SEM HBMEC Cells 4 h (HBMEC cells): 5.13% and 5.1 ± 0.1 ^b %; Te% ± SEM Caco-2 Cells 2 h (Caco-2 cells): 7.01% and 7.0 ± 0.2 ^c %; Te% ± SEM Caco-2 Cells 2 h (Caco-2 cells; listed as fucoxanthinol): 7.0%; Te% ± SEM Caco-2 Cells 4 h (Caco-2 cells): 8.63% and 8.6 ± 2.2 ^b %; Te% ± SEM Caco-2 Cells 24 h (Caco-2 cells): 18.36% and 18.4 ± 7.2 ^a %
4 | N[C@@H](CCC(=O)O)C(=O)O [L-glutamate] |  |  |  | viability at 24 h, 23 mM [1]: 47%
5 | CC(=C/C=C/C(C)=C/C=C/C=C(C)/C=C/C=C(\C)C=C=C1C(C)(C)C[C@H](O)C[C@@]1(C)O)/C=C/[C@@]12O[C@]1(C)C[C@@H](O)CC2(C)C [Neoxanthin] | 13.2% | 13.2 ± 4.3 ^a % | ≈ 0.6% and 0.6% | Te% ± SEM HBMEC Cells 4 h (HBMEC cells): 1.4 ± 0.2 ^b %; Te% ± SEM HBMEC Cells 4 h (HBMEC cells; listed as neoxanthin): 1.4%; Te% ± SEM HBMEC Cells 24 h (HBMEC cells; listed as neoxanthin): 13.2%; Te% ± SEM Caco-2 Cells 2 h (Caco-2 cells): 0.5 ± 0.3 ^b %; Te% ± SEM Caco-2 Cells 4 h (Caco-2 cells): 0.4 ± 0.1 ^b %; Te% ± SEM Caco-2 Cells 24 h (Caco-2 cells): 0.6 ± 0.4 ^a %
6 | C=C1C[C@@H](O)CC(C)(C)[C@]1(O)CC(=O)/C(C)=C/C=C/C(C)=C/C=C/C=C(C)/C=C/C=C(C)/C=C/[C@H]1C(C)=C[C@H](O)CC1(C)C [Prasinoxanthin] |  | 8.9 ± 2.3% | could not be detected; also recorded: could not pass through the intestinal epithelium | 
7 | CC(/C=C/C=C(C)/C=C/[C@@]12O[C@]1(C)C[C@@H](O)CC2(C)C)=C\C=C\C=C(C)\C=C\C=C(C)\C=C\[C@@]12O[C@]1(C)C[C@@H](O)CC2(C)C [Violaxanthin] |  | 13.9 ± 6.0% | could not be detected; also recorded: could not pass through the intestinal epithelium | 
8 | CC1=C(/C=C/C(C)=C/C=C/C(C)=C/C=C/C=C(C)/C=C/C=C(C)/C=C/[C@@]23O[C@]2(C)C[C@@H](O)CC3(C)C)C(C)(C)C[C@H](O)C1 [antheraxanthin] | could not be detected in the lower compartment |  | could not be detected in the lower compartment | 
9 | CC1=C(C#C/C(C)=C/C=C/C(C)=C/C=C/C=C(C)/C=C/C=C(C)/C=C/[C@@]23O[C@]2(C)C[C@@H](O)CC3(C)C)C(C)(C)C[C@H](O)C1 [diadinoxanthin] | could not be detected in the lower compartment |  | could not be detected in the lower compartment | 
10 | CC1=CCCC(C)(C)C1/C=C/C(C)=C/C=C/C(C)=C/C=C/C=C(C)/C=C/C=C(C)/C=C/C1=C(C)CCCC1(C)C (stereo not drawn) [α-carotene] | could not be detected in the lower compartment |  | could not be detected in the lower compartment | 
11 | CC1=C(/C=C/C(C)=C/C=C/C(C)=C/C=C/C=C(C)/C=C/C=C(C)/C=C/C2=C(C)CCCC2(C)C)C(C)(C)CCC1 [β-carotene] | could not be detected in the lower compartment |  | could not be detected in the lower compartment | 
12 | echinenone I | could not be detected in the lower compartment |  | could not be detected in the lower compartment | 
13 | echinenone II | could not be detected in the lower compartment |  | could not be detected in the lower compartment | 
14 | hydrogen peroxide [H2O2] |  |  |  | Cell viability compared to control group, neurotoxic agent alone [2]: 48%
15 | zeaxanthin/lutein | could not be detected in the lower compartment |  | could not be detected in the lower compartment | 
